The experiment concerns the target KRAS G12C protein (Homo sapiens, UniProt P01116, G12C). Kind of experiment: Nucleotide exchange assay (Method III, KRAS G12C/Raf-RBD TR-FRET). The class given is biochemical. The settings on record: SOS1-mediated exchange of GDP for GTP, 18 hr compound incubation. An outline of the steps: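 His-tagged GDP-bound KRAS G12C (25 nM in 2× mix) was preincubated with an 11-point, 3-fold compound series for 18 hr at 23° C, then SOS1/GTP was added for 1 hr. FLAG-Raf-RBD with Tb-anti-FLAG/D2-anti-His followed for 2 hr at room temperature. TR-FRET was read, and IC50 was obtained by non-linear regression.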
(In TR-FRET formats the signal depends on donor and acceptor labels being close together.)

Among the data in patent US20230023009A1, “HETEROCYCLIC COMPOUNDS AND METHODS OF USE THEREOF” (SPARCBIO LLC, priority 2020, published 2023) are IC50 values, retold here.

KRAS G12C protein, sequence (P01116 1-188 isoform P01116-2 G12C): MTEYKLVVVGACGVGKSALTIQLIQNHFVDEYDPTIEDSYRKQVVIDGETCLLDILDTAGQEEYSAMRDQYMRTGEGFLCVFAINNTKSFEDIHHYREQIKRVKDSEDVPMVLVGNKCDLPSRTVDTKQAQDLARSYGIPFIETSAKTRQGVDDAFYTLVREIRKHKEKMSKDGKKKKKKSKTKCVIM

Broadly, the IC50 is the concentration at which inhibition is half-maximal. Lower therefore signals greater potency in that assay. In turn, `C=C(F)C(=O)N1CCN(c2nc(OC[C@@H]3CCCN3C)nc3c2CO[C@@H](c2cccc4cccc(Cl)c24)C3)C[C@@H]1CC#N` (single isomer, unassigned) [43 (Isomer B)] had an IC50 not above 0.3 µM.
